# In the C3SDB collision cross section collection:
# Where a name gives a salt, the structure may show the parent alone.
# Details: [M+H-H2O]+; instrument: TW; calibrated with polyalanine and drug standards
row,SMILES,collision cross section (N2) [Å²]
1,CNCC(O)c1ccc(O)cc1 (stereo not given) [OXEDRINE],132

# Same assay, conditions: [M+H]+; instrument: TW; calibrated with polyalanine and drug standards
row,collision cross section (N2) [Å²],SMILES
1,154.2,CC1=CC(=O)C2=C(C)CC[C@@H]3[C@H](OC(=O)[C@H]3C)[C@@H]12 [LEUCODIN]
2,145.4,N[C@@H](Cc1ccc(O)c(O)c1)C(=O)O [LEVODOPA]
3,185.8,CCOC(=O)N1CCC(=C2c3ccc(Cl)cc3CCc3cccnc32)CC1 [LORATADINE]
4,198.2,C=C1C[C@H]2[C@@H]3C=C(C)C4=CC(=O)CC[C@]4(C)[C@H]3CC[C@]2(C)[C@@]1(OC(C)=O)C(C)=O [MELENGESTROL ACETATE]
5,120.4,[O-][n+]1cccc(CO)c1 [MEPIROXOL]
6,134.7,Nc1ccc(O)c(C(=O)O)c1 [MESALAMINE]
7,126.8,C1N2CN3CN1CN(C2)C3 [METHENAMINE]
8,156.5,COc1cc(C)c2c(=O)cc(-c3ccccc3)oc2c1 [METHOXYVONE]
9,123.7,Cc1cc(=O)[nH]c(=S)[nH]1 [METHYLTHIOURACIL]
10,140.2,COc1cc(OC)c(C(C)=O)c(O)c1C [METHYLXANTHOXYLIN]
11,159.4,Cc1cc2c(cc1S(N)(=O)=O)S(=O)(=O)CCC2 [METICRANE]
12,181.2,Cc1ccccc1N1C(=O)c2cc(S(N)(=O)=O)c(Cl)cc2NC1C (stereo not given) [METOLAZONE]
13,130.4,Cc1ncc([N+](=O)[O-])n1CCO [METRONIDAZOLE]
14,203.9,COC(=O)C[C@H]1C(C)(C)C(=O)[C@@H]2CC3=C4CC(=O)O[C@@H](c5ccoc5)[C@]4(C)CC[C@@H]3[C@@]1(C)C2=O [MEXICANOLIDE]
15,197.3,COc1c(C)c2c(c(O)c1C/C=C(\C)CCC(=O)OCCN1CCOCC1)C(=O)OC2 [MYCOPHENOLATE MOFETIL]
16,165.4,COc1c(C)c2c(c(O)c1C/C=C(\C)CCC(=O)O)C(=O)OC2 [MYCOPHENOLIC ACID]
17,171.8,CC(C)(C)NCC(O)COc1cccc2c1C[C@H](O)[C@H](O)C2 (stereo not given in full) [NADOLOL]
18,145.3,CCn1cc(C(=O)O)c(=O)c2ccc(C)nc21 [NALIDIXIC ACID]
19,121.7,NC(=O)c1cccnc1 [NIACINAMIDE]

row,collision cross section (N2) [Å²],SMILES
1,154.4,O=C(N/N=C/c1ccc([N+](=O)[O-])o1)c1ccc(O)cc1 [NIFUROXAZIDE]
2,181.9,CCOC(=O)C1=C(C)NC(C)=C(C(=O)OC)C1c1cccc([N+](=O)[O-])c1 (stereo not given) [NITRENDIPINE]
3,138.6,NC(=O)N/N=C/c1ccc([N+](=O)[O-])o1 [NITROFURAZONE]
4,245.8,CCCCCCCCCc1ccc(OCCOCCOCCOCCOCCOCCOCCOCCOCCO)cc1 [NONOXYNOL-9]
5,186.3,C#C[C@]1(OC(C)=O)CC[C@H]2[C@@H]3CCC4=CC(=O)CC[C@@H]4[C@H]3CC[C@@]21C [NORETHINDRONE ACETATE]
6,174.4,C#C[C@]1(O)CC[C@H]2[C@@H]3CCC4=CC(=O)CC[C@@H]4[C@H]3CC[C@@]21C [NORETHINDRONE]
7,188.5,CC1COc2c(N3CCN(C)CC3)c(F)cc3c(=O)c(C(=O)O)cn1c23 (stereo not given) [OFLOXACIN]
8,196.7,C[C@@H]1CN(c2c(F)c(F)c3c(=O)c(C(=O)O)cn(C4CC4)c3c2F)C[C@H](C)N1 [ORBIFLOXACIN]
9,241.2,CCCCCCCCCCC[C@@H](C[C@@H]1OC(=O)[C@H]1CCCCCC)OC(=O)[C@H](CC(C)C)NC=O [ORLISTAT]
10,141.7,Cc1ncc([N+](=O)[O-])n1CC(O)CCl (stereo not given) [ORNIDAZOLE]
11,129.1,Cc1cc(O)cc(O)c1C(=O)O [ORSELLINIC ACID]
12,169.7,O=C(O)CCc1nc(-c2ccccc2)c(-c2ccccc2)o1 [OXAPROZIN]
13,152.7,NC(=O)N1c2ccccc2CC(=O)c2ccccc21 [OXCARBAZEPINE]
14,178.3,CCN(CC)CCOCCOC(=O)C(CC)(CC)c1ccccc1 [OXELAIDIN CITRATE]
15,174.1,COC(=O)Nc1nc2ccc(S(=O)c3ccccc3)cc2[nH]1 (stereo not given) [OXFENDAZOLE]
16,157.5,CCCOc1ccc2nc(NC(=O)OC)[nH]c2c1 [OXIBENDAZOLE]
17,278.9,CC(=O)OC1C(=O)C2(C)C(O)CC3OCC3(OC(C)=O)C2C(OC(=O)c2ccccc2)C2(O)CC(OC(=O)C(O)C(NC(=O)c3ccccc3)c3ccccc3)C(C)=C1C2(C)C (stereo not given) [PACLITAXEL]
18,236.5,COc1ccc(-c2cc(=O)c3c(O)c(OC)c(O[C@@H]4O[C@H](CO[C@@H]5O[C@@H](C)[C@H](O)[C@@H](O)[C@H]5O)[C@@H](O)[C@H](O)[C@H]4O)cc3o2)cc1 [PECTOLINARIN]
19,186.6,N#Cc1ccc2c(c1)N(CCCN1CCC(O)CC1)c1ccccc1S2 [PERICIAZINE]

row,SMILES,collision cross section (N2) [Å²]
1,CN1C[C@H](CNC(=O)OCc2ccccc2)C[C@@H]2c3cccc4c3c(cn4C)C[C@H]21 [METERGOLINE],197.6
2,CNc1ccccc1C(=O)O [N-METHYLANTHRANILIC ACID],125.9
3,Cc1ncc(CNC(=O)N(CCCl)N=O)c(N)n1 [NIMUSTINE],158.9
4,C[C@@H]1O[C@@H](O[C@H]2C[C@@H](O)[C@]3(CO)[C@H]4[C@H](O)C[C@]5(C)[C@@H](C6=CC(=O)OC6)CC[C@]5(O)[C@@H]4CC[C@]3(O)C2)[C@H](O)[C@H](O)[C@H]1O [OUABAIN],234
5,CCn1cc(C(=O)O)c(=O)c2cc3c(cc21)OCO3 [OXOLINIC ACID],149.1

# Same assay, conditions: [M+Na]+; instrument: TW; calibrated with polyalanine and drug standards
row,collision cross section (N2) [Å²],SMILES
1,202,CC[C@H](C)C(=O)O[C@H]1C[C@@H](C)C=C2C=C[C@H](C)[C@H](CC[C@@H]3C[C@@H](O)CC(=O)O3)[C@H]21 [LOVASTATIN]
2,199.2,OC[C@H]1O[C@@](CO)(O[C@H]2O[C@H](CO)[C@@H](O)[C@H](O)[C@H]2O)[C@@H](O[C@H]2O[C@H](CO)[C@@H](O)[C@H](O)[C@H]2O)[C@@H]1O [MELEZITOSE]
3,199.1,COC(=O)CC[C@@H](C)[C@H]1CC[C@H]2[C@@H]3CC[C@@H]4C[C@H](O)CC[C@]4(C)[C@H]3C[C@H](O)[C@]12C [METHYL DEOXYCHOLATE]
4,164.8,CC(=O)N[C@H]1C(O)O[C@H](CO)[C@@H](O)[C@@H]1O[C@H](C)C(=O)O (stereo not given in full) [N-ACETYLMURAMIC ACID]
5,166.6,CC(=O)N[C@H]1[C@H]([C@H](O)[C@H](O)CO)O[C@](O)(C(=O)O)C[C@@H]1O [N-ACETYLNEURAMIC ACID]

row,SMILES,collision cross section (N2) [Å²]
1,CC(C)(C#N)O[C@@H]1O[C@H](CO)[C@@H](O)[C@H](O)[C@H]1O [LINAMARIN],157.3
